Experimental data published in patent US5712251A, “Treatment method” (Roussel Uclaf, priority 1979, dated 1998).

How the values were obtained:
[1] = tested on: testicular steroidogensis; assay: Inhibitory activity against testicular steroidogenesis in men in good health, single intranasal dose (Example 1); type: in vivo; conditions: for level of testosterone/steroids on the fourth day after administration: single intranasal dose of 500 μg, fourth day (until 6th day)
Method: The inhibitory activity of D Ser (Tbu)^6 or Gly^10 LH-RH ethylamide (described in German application Ser. No. 2,438,350) against testicular steroidogensis in men in good health was determined on men in good health aged 30 to 40 years. The said product was administered intranasally at a dose of 500 μg in a few drops of distilled water at 8 A.M. on the third day of the test. For 2 days prior to the treatment and for 6 days after the treatment, samples of blood were taken daily at 8 A.M., 3 P.M. and 10 P.M. On the day of administration of the LH-RH agonist, blood samples were taken at 11 A.M. and 6 P.M.
The seric concentrations of LH and FSH were measured by radioimmuno-logic dosages with double antibodies and the antibodies for measuring LH and FSH were furnished by the National Pituitary Agency of N.I.H. in Bethesda, Md. The seric concentrations of steroids was measured by radioimmuno-logic dosages in which one ml of serum was extracted with ether and the steroids were separated on a LH-20 column before measuring with radioimmuno-logic dosages. The radioimmuno-logic dosage results were determined by a program derived from model II of Rodbard et al [Second Karolinska Symposium on Research Methods in Reproductive Endocrinology, Diezfalusky Editer, Copenhague (1970), p. 79-103]. The statistical significance was determined by the "multiple level test" of Duncan-Kramer [Kramer, Biometrics, Vol 12 (1956), p. 307]. The results are shown in the graphs on sheet 1 of the Figures filed herewith.

ovarian steroidogenosis = assay: Inhibitory activity on ovarian steroidogenesis in women (Example 3); type: in vivo
Method: The study was conducted for 6 consecutive cycles consisting of 2 pretreatment cycles, 2 treatment cycles and 2 post-treatment cycles. […] Daily blood samples were taken between 4 and 6 P.M. to measure seric levels of LH, FSH, progesterone and estradiol which were determined by radioimmuno-logic tests with double antibodies. The antibodies to measure LH and FSH were furnished by the National Pituitary Agency of N.I.H. of Bethesda, Md.
Estradiol and progesterone were measured with highly specific antibodies developed against 7-(O-carboxymethyl)-oxime of estradiol and 12-(O-carboxymethyl)-oxime of progesterone, respectively [3H] 17β-estradiol and ^125 I-progesterone-12-[O-carboxymethyl)-oxime]used as tracers. The serum was extracted with benzene and the steroids were separated with a LH-20 column before the determination. The radioimmunological results were exploited by the program derived from model II of Rodbard and Lewald as in Example 1 and the statistical significance was measured by the multiple level test of Ducan-Kramer of Example 1. The results are shown in the graphs of sheets 3 to 5 of the Figures.

[2] = tested on: prostate and seminal vesicules; assay: Peptide in association with an antiandrogen: weight of prostate and seminal vesicles of rats (Example 4); type: in vivo, rats of the Sprague-Dawley strain; conditions: 100 or 500 μg peptide s.c. daily plus 5 mg product A twice daily, 14 days
Method: The effect of the administration of D Ser (Tbu)^6 of Gly^10 LH-RH ethylamide in association with an antiandrogen was determined on groups of 9 normal rats of the Sprague-Dawley strain weighing about 250 g. The rats received for 14 days a subcutaneous administration at 9 A.M. of D Ser (Tbu)^6 of Gly^10 LH-RH ethylamide at a dose of 20, 100 or 500 μg in physiological serum and at 9 A.M. and 4 P.M. doses of 1 or 5 mg of 5,5-dimethyl-3-[4-nitro-3-trifluoromethyl-phenyl]-2,4-imidazolidinedione (product A) in solution in sesame oil containing 5% of benzyl alcohol. One group of rats received only physiological serum and one group received only product A.
The animals were killed 24 hours after the last injection and the weight of the prostate and seminal vesicules of the rats were determined.

[3] = 3rd day following peptide administration, intranasal 500 μg

Question: For `CCNC(=O)[C@@H]1CCCN1C(=O)[C@H](CCCNC(=N)N)NC(=O)[C@H](CC(C)C)NC(=O)[C@@H](COC(C)(C)C)NC(=O)[C@H](Cc1ccc(O)cc1)NC(=O)[C@H](CO)NC(=O)[C@H](Cc1c[nH]c2ccccc12)NC(=O)[C@H](Cc1c[nH]cn1)NC(=O)[C@@H]1CCC(=O)N1` [D Ser (Tbu)^6 of Gly^10 LH-RH ethylamide], which “concentration of 17-OH-progesterone relative to initial control values” [1, 3] is on record?
Answer: Its value is 40%.

Question: And the “concentration of testosterone relative to initial control values” [1, 3]?
Answer: The value was 50%.

Question: What about the FSH plasmatic level ([1]; intranasal 500 μg, men) of the same compound?
Answer: The FSH plasmatic level was “increase”.

Question: And the LH plasmatic level ([1]; intranasal 500 μg, men)?
Answer: The LH plasmatic level was “increase”.

Question: And the “level of testosterone/steroids on the fourth day after administration” value ([1]; listed as D Ser (Tbu)^6 or Gly^10 LH-RH ethylamide)?
Answer: Its value is “returned to normal”.

Question: What about the “level of testosterone/steroids on the fourth day after administration” value ([1]; listed as peptide) of the same compound?
Answer: The value was “return to normal levels”.

Question: What about the “progesterone level in cycles of post-treatment, pretreatment cycles as base of 100%” value (ovarian steroidogenosis; 12 cycles, 6 women) of the same compound?
Answer: The value was 99%.

Question: What about the “progesterone level in cycles of treatment, pretreatment cycles as base of 100%” value (ovarian steroidogenosis; 12 cycles, 6 women) of the same compound?
Answer: The value was 46%.

Question: What about the “level of progesterone reduced as compared to the controls” value (ovarian steroidogenosis; review of 12 cycles (sheet 5)) of the same compound?
Answer: The value was 46%.

Question: What about the “level of seric progesterone in the 2 cycles of post-treatment” value (ovarian steroidogenosis; sheet 4) of the same compound?
Answer: The value was “return to normal”.

Question: And the “reduction of seric level of progesterone as compared to controls, first treatment cycle” value (ovarian steroidogenosis; typical subject (sheet 3), 500 μg intranasal at 8 A.M. and 5 P.M. on one day between 4th and 9th day after LH peak)?
Answer: Its value is 13%.

Question: And the “reduction of seric level of progesterone as compared to controls, second treatment cycle” value (ovarian steroidogenosis; typical subject (sheet 3), same regimen)?
Answer: Its value is 34%.

Question: And the “weight of the prostate” value [2]?
Answer: The value was “Similar, but a little less marked”.

Question: And the “weight of the seminal vesicules” value [2]?
Answer: Its value is “approached the weight of the seminal vesicules of castrated rats”.
